For one data set, the target named is T1, Ba/F3-Syk cells (Homo sapiens, UniProt P43405).
T1 construct: fused on or other part: Possible but unprinted fusion partner: TEL (ETV6), the usual partner for Ba/F3 lines transformed by Syk; Nothing on a partner is printed
As to the kind of experiment: Ba/F3 Proliferation Assay, Ba/F3-Syk cells (Resazurin). Type of data set: cell-based. To be noted: 48-hour incubation. Background: Resazurin is reduced to fluorescent resorufin, in cell work by metabolically active cells.

The target in another data set is T2, Syk (Homo sapiens, UniProt P43405).
T2 construct: purchased Promega
The experiment in a line: Syk Biochemical Assay (ADP-Glo luminescence). Particulars: ATP 40 μM final, 60 minutes, read-out: SYK Biochem IC50. On the technique in general: ADP-Glo turns the ADP formed in a reaction into a luminescent signal.

The next data set has as its system MDR1 (Pgp). As to the kind of experiment: Permeability Assay, bi-directional flux in MDCKII-MDR1 cells. Type of data set: in vitro ADME, canine. To be noted: dog; for Papp at 2 h, 10 PM: MDCK-MDR1, 2 hours at 37° C., concentration printed as 10 PM; for efflux ratio at 2 h, 10 PM: MDCK-MDR1, ratio >2 indicates the compound is effluxed, read-out: efflux ratio (PappB-A/PappA-B). The procedure:
The assay was performed using Charles River/Agilux default assay conditions and default acetonitrile extraction and bioanalytical conditions. The assay was performed using MDCKII-MDR1 (Pgp) cells (canine MDCK stably transfected with MDR1). Bi-directional (A-B and B-A) flux measurements were carried out in triplicate aliquots from duplicate wells. The compounds were incubated for 2 hours at 37° C. at a concentration of 10 PM. The efflux ratio is the ratio of PappB-A/PappA-B, and a ratio >2 indicates the compound is effluxed.

Data set [1] is described as follows: Brain Penetration Assays: Mouse Pharmacokinetics (plasma and brain levels after oral dose). It counts as in vivo. To be noted: male, CD-1, mouse, mice, 1 hour post oral dose of 10 mg/kg; for concentration at 1 h: brain (free, unbound); for Kp at 1 h: brain / plasma (unbound), read-out: Kpu,u (ratio of unbound brain levels to unbound plasma levels). The procedure: Male CD-1 mice (6-8 weeks of age, 3 animals per timepoint) were dosed via oral gavage (10 mL/kg) with compound (10 mg/kg, 0.5% methylcellulose in water). Blood samples were taken either non-terminal via saphenous vein or terminal via cardiac puncture and stored in 1.5 mL Eppendorf tubes containing 0.010 mL of 10% K2EDTA, mixed gently and placed in ice before centrifugation. Blood was centrifuged at 10,000 r.p.m. for 2 minutes, plasma harvested and stored at −80° C. Following blood collection at the terminal time points, animals were sacrificed with C02 and brains quickly removed, rinsed with cold saline (0.9% NaCl), surface vasculature ruptured, blotted with dry gauze or tissue and weighed. The whole brain was homogenized in 1.0 mL ice cold phosphate-buffered saline, pH 7.4 and the homogenates stored at −80° C. Compound concentrations were quantified in plasma and brain tissue by LC-MS/MS using a partially validated bioanalytical method.
The Rapid Equilibrium Dialysis (RED) method was employed with plasma (200 μL, BioIVT, USA) in phosphate buffered saline (PBS, 350 μL) incubated with compound (1 μM) at 37° C. for 5 hours shaking at 450 r.p.m. Acetonitrile (3 volumes) was added and the sample centrifuged for 5 minutes and 1050 r.p.m. then for 15 minutes at 4000 r.p.m. Compound concentrations were quantified via LC-MS/MS from supernatant and free drug was calculated.
The RED method was employed with mouse brain homogenate (10% w/v prepared in-house)) incubated with compound (1 μM) at 37° C. for 5 hours shaking at 450 r.p.m. Acetonitrile (3 volumes) was added and the sample centrifuged for 5 minutes and 1050 r.p.m. then for 14 minutes at 4000 r.p.m. Compound concentrations were quantified via LC-MS/MS from supernatant and free drug was calculated.

Data set [2] concerns Ba/F3-WT (wild type) cells. As to the kind of experiment: Ba/F3 Proliferation Assay, Ba/F3-WT (wild type) cells with mIL-3 (Resazurin). It counts as cell-based. To be noted: Mus musculus, BaF3, 48 h, Ba/F3-WT cells +mIL-3, 48-hour incubation.

Some results are limits rather than exact numbers.

In general, EC50 refers to the concentration needed to bring the measured effect to its halfway point. A higher EC50 goes with lower potency in that assay. One may read the IC50 as the point on the concentration scale where inhibition reaches its midpoint. One may read the Papp as a coefficient for how fast a substance crosses the barrier. Low values mean poor permeation, high ones ready permeation. In the case of `Cn1ccc(-c2cc3ncccc3c(OC[C@@H]3CNCCO3)n2)c1` [Compound 2.20, 7-(1-methyl-1H-pyrrol-3-yl)-5-{[(2S)-morpholin-2-yl]methoxy}-1,6-naphthyridine], at Ba/F3-Syk cells, a half-maximal response (EC50) required 87.5 nM. In addition, the IC50 at Syk was 37.8 nM. Further, in the data set with MDR1 (Pgp), the Papp at 2 h, 10 PM is more than 20 ×10⁻⁶ cm/s and the efflux ratio at 2 h, 10 PM is not above 1. Moreover, in data set [1], the concentration at 1 h was more than 25 nM and the Kp at 1 h fell in the range of 0.2 to 0.3. For the same compound, the EC50 in data set [2] is 4170 nM.
`CC1(C)CNC[C@@H](COc2nc(-c3cnn(C(C)(C)C)c3)cc3ncccc23)O1` [Compound 2.42, 7-(1-tert-butyl-1-pyrazol-4-yl)-5-{[(2S)-6,6-dimethylmorpholin-2-yl]methoxy}-1,6-naphthyridine]: it took 12.5 nM to reach a half-maximal effect at Ba/F3-Syk cells (EC50). The IC50 on Syk turned out to be 12.2 nM. Further, in the data set with MDR1 (Pgp), the Papp at 2 h, 10 PM is more than 20 ×10⁻⁶ cm/s and the efflux ratio at 2 h, 10 PM was not above 1. Besides, in data set [1], the concentration at 1 h was more than 25 nM and the Kp at 1 h fell in the range of 0.1 to 0.2. For the same compound, the EC50 in data set [2] turned out to be 2340 nM.
On Ba/F3-Syk cells, `Cn1ccc(-c2cc(OC[C@@H]3CNCCO3)c3cccnc3c2)c1` [Compound 3.1, 7-(1-methyl-1H-pyrrol-3-yl)-5{-[(2S)-morpholin-2-yl]methoxy}quinoline] showed an EC50 of 78.2 nM. Besides, at Syk, the half-maximal inhibitory concentration (IC50) worked out at 48.1 nM. For the same compound, in the data set with MDR1 (Pgp), the Papp at 2 h, 10 PM lay in the range of 15 to 20 ×10⁻⁶ cm/s and the efflux ratio at 2 h, 10 PM was not above 1. The Kp at 1 h in data set [1] fell in the range of 0.1 to 0.2. Also, a half-maximal effect in data set [2] (EC50) was put at 2660 nM.
On Ba/F3-Syk cells, `CC(C)n1cc(-c2cc(OC[C@@H]3CNCC(C)(C)O3)c3cccnc3c2)cn1` [Compound 3.6, 5-{[(2S)-6,6-dimethylmorpholin-2-yl]methoxy}-7-[1-(propan-2-yl)-1H-pyrazol-4-yl]quinoline] yielded an EC50 of 23.3 nM. The IC50 at Syk stood at 10.6 nM. Further, in the data set with MDR1 (Pgp), the Papp at 2 h, 10 PM fell in the range of 15 to 20 ×10⁻⁶ cm/s and the efflux ratio at 2 h, 10 PM was in the range of 1 to 2. In data set [1], the concentration at 1 h was not above 25 nM and the Kp at 1 h lay in the range of 0.05 to 0.1. Moreover, in data set [2], the EC50 came to 2120 nM.
For the compound `Cn1ccc(-c2cc(OC[C@@H]3CNCC(C)(C)O3)c3cccnc3c2)c1` [Compound 3.10, 5-{[(2S)-6,6-dimethylmorpholin-2-yl]methoxy}-7-(1-methyl-1H-pyrrol-3-yl)quinoline], the values for the EC50 (at Ba/F3-Syk cells; in data set [2]) were 53.2 nM and 4610 nM, respectively. For the same compound, the IC50 on Syk amounted to 35 nM. Further, the concentration at 1 h in data set [1] was more than 25 nM. Moreover, in data set [1], the Kp at 1 h was 0.2 to 0.3.
Consider `CC(C)n1ccc(-c2cc3ncccc3c(OC[C@@H]3CNCCO3)n2)c1` [Compound 6.2, 5-{[(2S)-morpholin-2-yl]methoxy}-7-[1-(propan-2-yl)-1H-pyrrol-3-yl]-1,6-naphthyridine], for which, at Ba/F3-Syk cells, the midpoint of the response, the EC50, lay at 35.6 nM. At Syk, the IC50 was 16 nM. In the data set with MDR1 (Pgp), the Papp at 2 h, 10 PM is more than 20 ×10⁻⁶ cm/s and the efflux ratio at 2 h, 10 PM fell in the range of 1 to 2. Further, in data set [1], the Kp at 1 h lay in the range of 0.1 to 0.2. The response in data set [2] was half-maximal at 2550 nM (EC50).
The compound `CC(C)n1ccc(-c2cc3ncccc3c(OC[C@@H]3CNCC(C)(C)O3)n2)c1` [Compound 6.9, 5-{[(2S)-6,6-dimethylmorpholin-2-yl]methoxy}-7-[1-(propan-2-yl)-1H-pyrrol-3-yl]-1,6-naphthyridine] displayed an EC50 on Ba/F3-Syk cells of 11.4 nM. The IC50 on Syk was 14.1 nM. Besides, in the data set on MDR1 (Pgp), the Papp at 2 h, 10 PM was in the range of 15 to 20 ×10⁻⁶ cm/s and the efflux ratio at 2 h, 10 PM was not above 1. The Kp at 1 h in data set [1] lay in the range of 0.1 to 0.2. This compound gave an EC50 in data set [2] of 3300 nM.
As to `CCn1ccc(-c2cc3ncccc3c(OC[C@@H]3CNCC(C)(C)O3)n2)c1` [Compound 6.19, 5-{[(2S)-6,6-dimethylmorpholin-2-yl]methoxy}-7-(1-ethyl-1H-pyrrol-3-yl)-1,6-naphthyridine], the EC50 on Ba/F3-Syk cells is 21.4 nM; in data set [2] it was 5020 nM. The IC50 at Syk stood at 11.9 nM. Also, the concentration at 1 h in data set [1] was more than 25 nM. Besides, the Kp at 1 h in data set [1] is 0.1 to 0.2.
Taken in the same sequence, the figures for `CCn1ccc(-c2cc3ncccc3c(OC[C@@H]3CNCCCO3)n2)c1` [Compound 6.26, 7-(1-ethyl-1H-pyrrol-3-yl)-5-{[(2S)-1,4-oxazepan-2-yl]methoxy}-1,6-naphthyridine] were 21.4 nM, more than 10000 nM, 32.1 nM, not above 10 nM and 0.1 to 0.2.
In turn, `CC(C)n1ccc(-c2cc3ncccc3c(O[C@H](C)[C@@H]3CNCCO3)n2)c1` [Compound 6.28, 5-[(1R)-1-[(2S)-morpholin-2-yl]ethoxy]-7-[1-(propan-2-yl)-1H-pyrrol-3-yl]-1,6-naphthyridine] had an EC50 on Ba/F3-Syk cells of 15 nM. Further, at Syk, the IC50 came to 41.8 nM. In addition, in data set [1], the concentration at 1 h is not above 10 nM and the Kp at 1 h lay in the range of 0.2 to 0.3. This compound showed an EC50 in data set [2] of 2680 nM.
Taken in the same sequence, the figures for `CC1(C)CNC[C@@H](COc2cc(-c3ccn(C4COC4)c3)cc3ncccc23)O1` [Compound 7.11, 5-{[(2S)-6,6-dimethylmorpholin-2-yl]methoxy}-7-[1-(oxetan-3-yl)-1H-pyrrol-3-yl]quinoline] were 14.4 nM, 9.7 nM, not above 10 nM, 0.2 to 0.3 and 1700 nM.

(Values after patent US20250263408A1 (Uniquest Pty Ltd, priority 2022, published 2025).)
